Test results: PubChem BioAssay (NCI)
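Compound exposure: 48 hours, 5 concentrations, 96-well plates. GI50: concentration for 50% inhibition of growth. The concentration for full growth arrest is given as TGI.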

Experiments:
Assay in all cases: NCI anticancer screen, dose series, 48 h; in the data active = GI50 below about 0.43 µM; inactive = the rest
786-0 renal = test system: 786-0 renal
A498 renal = test system: A498 renal
A549 NSCLC = test system: A549 NSCLC
ACHN renal = test system: ACHN renal
BT-549 breast = test system: BT-549 breast
CAKI-1 renal = test system: CAKI-1 renal
CCRF-CEM leukemia = test system: CCRF-CEM leukemia
COLO 205 colon = test system: COLO 205 colon
DU-145 prostate = test system: DU-145 prostate
EKVX NSCLC = test system: EKVX NSCLC
HCT-116 colon = test system: HCT-116 colon
HCT-15 colon = test system: HCT-15 colon
HL-60(TB) leukemia = test system: HL-60(TB) leukemia
HOP-62 NSCLC = test system: HOP-62 NSCLC
HOP-92 NSCLC = test system: HOP-92 NSCLC
HS 578T breast = test system: HS 578T breast
HT29 colon = test system: HT29 colon
IGROV1 ovarian = test system: IGROV1 ovarian
K-562 leukemia = test system: K-562 leukemia
KM12 colon = test system: KM12 colon
LOX IMVI melanoma = test system: LOX IMVI melanoma
M14 melanoma = test system: M14 melanoma
MALME-3M melanoma = test system: MALME-3M melanoma
MCF7 breast = test system: MCF7 breast
MDA-MB-231 breast = test system: MDA-MB-231 breast
MDA-MB-435 = test system: MDA-MB-435
MOLT-4 leukemia = test system: MOLT-4 leukemia
NCI-H226 lung = test system: NCI-H226 lung
NCI-H460 lung = test system: NCI-H460 lung
NCI-H522 lung = test system: NCI-H522 lung
OVCAR-3 ovarian = test system: OVCAR-3 ovarian
OVCAR-4 ovarian = test system: OVCAR-4 ovarian
OVCAR-8 ovarian = test system: OVCAR-8 ovarian
PC-3 prostate = test system: PC-3 prostate
RXF 393 renal = test system: RXF 393 renal
SF-268 CNS = test system: SF-268 CNS
SF-295 CNS = test system: SF-295 CNS
SF-539 CNS = test system: SF-539 CNS
SK-MEL-2 melanoma = test system: SK-MEL-2 melanoma
SK-MEL-28 melanoma = test system: SK-MEL-28 melanoma
SK-MEL-5 melanoma = test system: SK-MEL-5 melanoma
SK-OV-3 ovarian = test system: SK-OV-3 ovarian
SN12C renal = test system: SN12C renal
SNB-19 CNS = test system: SNB-19 CNS
SNB-75 CNS = test system: SNB-75 CNS
SW-620 colon = test system: SW-620 colon
T-47D breast = test system: T-47D breast
TK-10 renal = test system: TK-10 renal
U251 CNS = test system: U251 CNS
UACC-257 melanoma = test system: UACC-257 melanoma
UACC-62 melanoma = test system: UACC-62 melanoma
UO-31 renal = test system: UO-31 renal

CCC(C)C(NC(=O)C1CCCN1C(=O)C(NC(=O)C(C)N)C(C)C)C(N)=O (stereo not drawn)
inactive: GI50 (786-0 renal) > 100 µM | GI50 (A498 renal) > 100 µM | GI50 (A549 NSCLC) > 100 µM | GI50 (ACHN renal) > 100 µM | GI50 (BT-549 breast) > 100 µM | GI50 (CAKI-1 renal) > 100 µM | GI50 (CCRF-CEM leukemia) > 100 µM | GI50 (COLO 205 colon) > 100 µM | GI50 (DU-145 prostate) > 100 µM | GI50 (EKVX NSCLC) 77.2 µM | GI50 (HCT-116 colon) > 100 µM | GI50 (HCT-15 colon) > 100 µM | GI50 (HL-60(TB) leukemia) > 100 µM | GI50 (HOP-62 NSCLC) > 100 µM | GI50 (HOP-92 NSCLC) > 100 µM | GI50 (HS 578T breast) > 100 µM | GI50 (HT29 colon) > 100 µM | GI50 (IGROV1 ovarian) > 100 µM | GI50 (K-562 leukemia) > 100 µM | GI50 (KM12 colon) > 100 µM | GI50 (LOX IMVI melanoma) > 100 µM | GI50 (M14 melanoma) > 100 µM | GI50 (MALME-3M melanoma) 52.3 µM | GI50 (MCF7 breast) > 100 µM | GI50 (MDA-MB-231 breast) > 100 µM | GI50 (MDA-MB-435) > 100 µM | GI50 (MOLT-4 leukemia) > 100 µM | GI50 (NCI-H226 lung) > 100 µM | GI50 (NCI-H460 lung) > 100 µM | GI50 (NCI-H522 lung) > 100 µM | GI50 (OVCAR-3 ovarian) > 100 µM | GI50 (OVCAR-4 ovarian) > 100 µM | GI50 (OVCAR-8 ovarian) > 100 µM | GI50 (PC-3 prostate) > 100 µM | GI50 (RXF 393 renal) > 100 µM | GI50 (SF-268 CNS) > 100 µM | GI50 (SF-295 CNS) > 100 µM | GI50 (SK-MEL-2 melanoma) > 100 µM | GI50 (SK-MEL-28 melanoma) > 100 µM | GI50 (SK-MEL-5 melanoma) > 100 µM | GI50 (SK-OV-3 ovarian) > 100 µM | GI50 (SN12C renal) > 100 µM | GI50 (SNB-19 CNS) > 100 µM | GI50 (SNB-75 CNS) > 100 µM | GI50 (SW-620 colon) > 100 µM | GI50 (T-47D breast) > 100 µM | GI50 (TK-10 renal) > 100 µM | GI50 (U251 CNS) > 100 µM | GI50 (UACC-257 melanoma) > 100 µM | GI50 (UACC-62 melanoma) > 100 µM | GI50 (UO-31 renal) > 100 µM
> 100 µM: TGI (786-0 renal) | TGI (A498 renal) | TGI (A549 NSCLC) | TGI (ACHN renal) | TGI (BT-549 breast) | TGI (CAKI-1 renal) | TGI (CCRF-CEM leukemia) | TGI (COLO 205 colon) | TGI (DU-145 prostate) | TGI (EKVX NSCLC) | TGI (HCT-116 colon) | TGI (HCT-15 colon) | TGI (HL-60(TB) leukemia) | TGI (HOP-62 NSCLC) | TGI (HOP-92 NSCLC) | TGI (HS 578T breast) | TGI (HT29 colon) | TGI (IGROV1 ovarian) | TGI (K-562 leukemia) | TGI (KM12 colon) | TGI (LOX IMVI melanoma) | TGI (M14 melanoma) | TGI (MALME-3M melanoma) | TGI (MCF7 breast) | TGI (MDA-MB-231 breast) | TGI (MDA-MB-435) | TGI (MOLT-4 leukemia) | TGI (NCI-H226 lung) | TGI (NCI-H460 lung) | TGI (NCI-H522 lung) | TGI (OVCAR-3 ovarian) | TGI (OVCAR-4 ovarian) | TGI (OVCAR-8 ovarian) | TGI (PC-3 prostate) | TGI (RXF 393 renal) | TGI (SF-268 CNS) | TGI (SF-295 CNS) | TGI (SF-539 CNS) | TGI (SK-MEL-2 melanoma) | TGI (SK-MEL-28 melanoma) | TGI (SK-MEL-5 melanoma) | TGI (SK-OV-3 ovarian) | TGI (SN12C renal) | TGI (SNB-19 CNS) | TGI (SNB-75 CNS) | TGI (SW-620 colon) | TGI (T-47D breast) | TGI (TK-10 renal) | TGI (U251 CNS) | TGI (UACC-257 melanoma) | TGI (UACC-62 melanoma) | TGI (UO-31 renal)
